Assay results: patent publication US20240016781A1, “TREATMENT OF KRAS MUTANT CANCERS” (MEI Pharma, Inc., priority 2020, published 2024)
pEC50, pIC50: −log10 of the molar value. Read-outs that look alike come from different tables or passages of the source.

Legend:
Assay type in all cases: cell-based
NCI-H2030 = experiment: 72-hour CellTiter-Glo 2.0 growth inhibition screen (single agent, 9x9 combination dose matrix); details: for Emax: NCI-H2030;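 as to Best CI Level: inhibition effect level at which the best CI was calculated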
NCI-H1373 = experiment: as above; details: for Emax: NCI-H1373;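 as to Best CI Level: inhibition effect level at which the best CI was calculated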
MIA PaCa-2 = experiment: as above
Calu-1 = experiment: as above
NCI-H1792 = experiment: as above;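 as to Best CI Level: inhibition effect level at which the best CI was calculated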
MIA Paca-2 cells = experiment: Voruciclib-sensitive phosphoproteome (TMT, LC-MS/MS); details: voruciclib 4 μM over time
Method: Cells were treated with voruciclib (4 μM) over time. (FIG. 31A) Summary of peptide quantification after TMT labelling and analysis by LC-MS/MS. (FIG. 31B) Volcano plots of phosphosites (log 2 fold change vs −log 10 p-value).
To define the CDK9-dependent phosphoproteome, cells are treated for a short time period with VOR followed by harvesting of the cells, IMAC enrichment, 16-plex isobaric tagging, and analysis by LC/MS/MS. A time course or different doses or drug combinations for the conditions can be performed. This experiment provides insight into novel CDK9 substrates and inroads into possible therapeutic areas for CDK9 inhibition by VOR.

[1] = NCl-H2030 (KRAS G12C), enhancer + MEI-522 (Voruciclib), 72 h
[2] = NCl-H2030, Lung, Additional Single Agent Responses (inhibition, % I), 72 h
[3] = NCl-H2030, Lung, growth inhibition (GI), AUC, single agent, 72 h
[4] = enhancer combined with MEI-522 (Voruciclib), NCl-H2030 (Lung), 72 hours, inhibition data
[5] = NCl-H1373 (KRAS G12C), enhancer + MEI-522 (Voruciclib), 72 h
[6] = NCl-H1373, Lung, Additional Single Agent Responses (inhibition, % I), 72 h
[7] = NCl-H1373, Lung, growth inhibition (GI), AUC, single agent, 72 h
[8] = enhancer combined with MEI-522 (Voruciclib), NCl-H1373 (Lung), 72 hours, inhibition data
[9] = Homo sapiens, MIA PaCa-2, Pancreas, Additional Single Agent Responses (inhibition, % I), 72 h
[10] = MIA PaCa-2 (KRAS G12C), enhancer + MEI-522 (Voruciclib), 72 h;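 as to Best CI Level: inhibition effect level at which the best CI was calculated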
[11] = MIA PaCa-2, Pancreas, Additional Single Agent Responses (inhibition, % I), 72 h
[12] = MIA PaCa-2, Pancreas, growth inhibition (GI), AUC, single agent, 72 h
[13] = enhancer combined with MEI-522 (Voruciclib), MIA PaCa-2 (Pancreas), 72 hours, inhibition data
[14] = Calu-1 (KRAS G12C), enhancer + MEI-522 (Voruciclib), 72 h;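 as to Best CI Level: inhibition effect level at which the best CI was calculated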
[15] = Calu-1, Lung, Additional Single Agent Responses (inhibition, % I), 72 h
[16] = Calu-1, Lung, growth inhibition (GI), AUC, single agent, 72 h
[17] = enhancer combined with MEI-522 (Voruciclib), Calu-1 (Lung), 72 hours, inhibition data
[18] = NCl-H1792 (KRAS G12C), enhancer + MEI-522 (Voruciclib), 72 h
[19] = NCl-H1792, Lung, Additional Single Agent Responses (inhibition, % I), 72 h
[20] = NCl-H1792, Lung, growth inhibition (GI), AUC, single agent, 72 h
[21] = enhancer combined with MEI-522 (Voruciclib), NCl-H1792 (Lung), 72 hours, inhibition data
[22] = NCl-H2030, Lung, growth inhibition (GI) curve, single agent, 72 h
[23] = NCl-H1373, Lung, growth inhibition (GI) curve, single agent, 72 h
[24] = MIA PaCa-2, Pancreas, growth inhibition (GI) curve, single agent, 72 h
[25] = Calu-1, Lung, growth inhibition (GI) curve, single agent, 72 h
[26] = NCl-H1792, Lung, growth inhibition (GI) curve, single agent, 72 h

C=CC(=O)N1CCN(c2nc(=O)n(-c3c(C)ccnc3C(C)C)c3nc(-c4c(O)cccc4F)c(F)cc23)[C@@H](C)C1 [AMG510]
pEC50 (NCI-H2030; Homo sapiens, NCI-H2030, 72 h, NCl-H2030, Lung, Additional Single Agent Responses (inhibition, % I), 72 h): 8.37
pEC50 (NCI-H2030; Homo sapiens, NCI-H2030, 72 h, NCl-H2030, Lung, growth inhibition (GI) curve, single agent, 72 h): 8.36
Emax (NCI-H2030; Homo sapiens, NCl-H2030, Lung, Additional Single Agent Responses, 72 h, read-out: Max Response (% I)): 38%
Emax (NCI-H2030; Homo sapiens, NCl-H2030, Lung, growth inhibition (GI), single agent, 72 h, read-out: Max Response (% GI)): 47%
Best CI (NCI-H2030; [1]): 0.47
Bliss Volume (NCI-H2030; [1]): 6.35
HSA volume (NCI-H2030; [1]): 4.90
Loewe Volume (NCI-H2030; [1]): 4.51
Synergy Score (NCI-H2030; [1]): 5.13
Response Area (NCI-H2030; [2]): 1.65
Response Area (NCI-H2030; [3]): 2.05
Best CI (NCI-H2030; [4]): 0.70
Best CI Level (NCI-H2030; [4]): 50
Bliss Volume (NCI-H2030; [4]): 1.77
HSA volume (NCI-H2030; [4]): 3.51
Loewe Volume (NCI-H2030; [4]): 3.26
Synergy Score (NCI-H2030; [4]): 2.04
pEC50 (NCI-H1373; Homo sapiens, NCI-H1373, 72 h, NCl-H1373, Lung, Additional Single Agent Responses (inhibition, % I), 72 h): 8.60
pEC50 (NCI-H1373; Homo sapiens, NCI-H1373, 72 h, NCl-H1373, Lung, growth inhibition (GI) curve, single agent, 72 h): 8.68
Emax (NCI-H1373; Homo sapiens, NCl-H1373, Lung, Additional Single Agent Responses, 72 h, read-out: Max Response (% I)): 49%
Emax (NCI-H1373; Homo sapiens, NCl-H1373, Lung, growth inhibition (GI), single agent, 72 h, read-out: Max Response (% GI)): 65%
Best CI (NCI-H1373; [5]): 0.28
Bliss Volume (NCI-H1373; [5]): 2.91
HSA volume (NCI-H1373; [5]): 1.67
Loewe Volume (NCI-H1373; [5]): 2.62
Synergy Score (NCI-H1373; [5]): 4.10
Response Area (NCI-H1373; [6]): 2.05
Response Area (NCI-H1373; [7]): 2.56
Best CI (NCI-H1373; [8]): 0.93
Best CI Level (NCI-H1373; [8]): 20
Bliss Volume (NCI-H1373; [8]): −1.68
HSA volume (NCI-H1373; [8]): 0.90
Loewe Volume (NCI-H1373; [8]): 0.62
Synergy Score (NCI-H1373; [8]): 1.25
pEC50 (MIA PaCa-2; [9]): 8.24
pIC50 (MIA PaCa-2; [9]): 7.83
Emax (MIA PaCa-2; Homo sapiens, MIA PaCa-2, Pancreas, Additional Single Agent Responses, 72 h, read-out: Max Response (% I)): 63%
GI50 (MIA PaCa-2; Homo sapiens, MIA PaCa-2, Pancreas, growth inhibition (GI) curve, single agent, 72 h): 9.2 nM
Emax (MIA PaCa-2; Homo sapiens, MIA PaCa-2, Pancreas, growth inhibition (GI), single agent, 72 h, read-out: Max Response (% GI)): 77%
Best CI (MIA PaCa-2; [10]): 0.65
Bliss Volume (MIA PaCa-2; [10]): 3.75
HSA volume (MIA PaCa-2; [10]): 5.03
Loewe Volume (MIA PaCa-2; [10]): 4.68
Synergy Score (MIA PaCa-2; [10]): 6.04
Response Area (MIA PaCa-2; [11]): 3.12
Response Area (MIA PaCa-2; [12]): 3.77
Best CI (MIA PaCa-2; [13]): 0.60
Best CI Level (MIA PaCa-2; [13]): 75
Bliss Volume (MIA PaCa-2; [13]): 0.19
HSA volume (MIA PaCa-2; [13]): 2.76
Loewe Volume (MIA PaCa-2; [13]): 2.52
Synergy Score (MIA PaCa-2; [13]): 2.16
Best CI (Calu-1; [14]): 0.80
Bliss Volume (Calu-1; [14]): 2.90
HSA volume (Calu-1; [14]): 2.88
Loewe Volume (Calu-1; [14]): 2.66
Synergy Score (Calu-1; [14]): 4.52
Response Area (Calu-1; [15]): 1.72
Response Area (Calu-1; [16]): 2.29
pEC50 (Calu-1; Homo sapiens, Calu-1, 72 h, Calu-1, Lung, Additional Single Agent Responses (inhibition, % I), 72 h): 8.55
pEC50 (Calu-1; Homo sapiens, Calu-1, 72 h, Calu-1, Lung, growth inhibition (GI) curve, single agent, 72 h): 8.54
Emax (Calu-1; Homo sapiens, Calu-1, Lung, Additional Single Agent Responses, 72 h, read-out: Max Response (% I)): 37%
Emax (Calu-1; Homo sapiens, Calu-1, Lung, growth inhibition (GI), single agent, 72 h, read-out: Max Response (% GI)): 48%
Best CI (Calu-1; [17]): 0.72
Best CI Level (Calu-1; [17]): 55
Bliss Volume (Calu-1; [17]): −0.15
HSA volume (Calu-1; [17]): 1.55
Loewe Volume (Calu-1; [17]): 1.28
Synergy Score (Calu-1; [17]): 1.42
pEC50 (NCI-H1792; Homo sapiens, NCI-H1792, NCl-H1792, Lung, Additional Single Agent Responses (inhibition, % I), 72 h): 8.38
Emax (NCI-H1792; Homo sapiens, NCI-H1792, NCl-H1792, Lung, Additional Single Agent Responses, 72 h, read-out: Max Response (% I)): 29%
Emax (NCI-H1792; Homo sapiens, NCI-H1792, NCl-H1792, Lung, growth inhibition (GI), single agent, 72 h, read-out: Max Response (% GI)): 37%
Best CI (NCI-H1792; [18]): 0.36
Bliss Volume (NCI-H1792; [18]): 5.76
HSA volume (NCI-H1792; [18]): 3.59
Loewe Volume (NCI-H1792; [18]): 4.64
Synergy Score (NCI-H1792; [18]): 3.62
Response Area (NCI-H1792; [19]): 1.05
Response Area (NCI-H1792; [20]): 1.34
Best CI (NCI-H1792; [21]): 0.46
Bliss Volume (NCI-H1792; [21]): 2.25
HSA volume (NCI-H1792; [21]): 2.86
Loewe Volume (NCI-H1792; [21]): 3.31
Synergy Score (NCI-H1792; [21]): 1.87
Best CI Level (NCI-H1792; enhancer combined with MEI-522 (Voruciclib), NCl-H1792 (Lung), 72 hours, inhibition data, unit assumed): 35%

CN1CC[C@@H](c2c(O)cc(O)c3c(=O)cc(-c4ccc(C(F)(F)F)cc4Cl)oc23)[C@@H]1CO [MEI-522(Voruciclib)]
pEC50 (NCI-H2030; [2]): 5.98
pIC50 (NCI-H2030; [2]): 5.97
Response Area (NCI-H2030; [2]): 2.92
Max Response (% I) (NCI-H2030; NCl-H2030, Lung, Additional Single Agent Responses, 72 h): 98 % I
pEC50 (NCI-H2030; [22]): 5.77
GI50 (NCI-H2030; [22]): 1130 nM
Response Area (NCI-H2030; [3]): 5.28
Max Response (% GI) (NCI-H2030; NCl-H2030, Lung, growth inhibition (GI), single agent, 72 h): 188 % GI
pEC50 (NCI-H1373; [6]): 5.99
pIC50 (NCI-H1373; [6]): 5.91
Response Area (NCI-H1373; [6]): 2.58
Max Response (% I) (NCI-H1373; NCl-H1373, Lung, Additional Single Agent Responses, 72 h): 86 % I
pEC50 (NCI-H1373; [23]): 5.86
GI50 (NCI-H1373; [23]): 972 nM
Response Area (NCI-H1373; [7]): 4.24
Max Response (% GI) (NCI-H1373; NCl-H1373, Lung, growth inhibition (GI), single agent, 72 h): 147 % GI
pEC50 (MIA PaCa-2; [11]): 6.05
pIC50 (MIA PaCa-2; [11]): 5.97
Response Area (MIA PaCa-2; [11]): 2.64
Max Response (% I) (MIA PaCa-2; MIA PaCa-2, Pancreas, Additional Single Agent Responses, 72 h): 85 % I
pEC50 (MIA PaCa-2; [24]): 5.95
GI50 (MIA PaCa-2; [24]): 868 nM
Response Area (MIA PaCa-2; [12]): 3.63
Max Response (% GI) (MIA PaCa-2; MIA PaCa-2, Pancreas, growth inhibition (GI), single agent, 72 h): 116 % GI
pEC50 (Calu-1; [15]): 5.73
pIC50 (Calu-1; [15]): 5.70
Response Area (Calu-1; [15]): 2.48
Max Response (% I) (Calu-1; Calu-1, Lung, Additional Single Agent Responses, 72 h): 90 % I
pEC50 (Calu-1; [25]): 5.68
GI50 (Calu-1; [25]): 1680 nM
Response Area (Calu-1; [16]): 4.35
Max Response (% GI) (Calu-1; Calu-1, Lung, growth inhibition (GI), single agent, 72 h): 159 % GI
pEC50 (NCI-H1792; [19]): 5.87
pIC50 (NCI-H1792; [19]): 5.87
Response Area (NCI-H1792; [19]): 2.83
Max Response (% I) (NCI-H1792; NCl-H1792, Lung, Additional Single Agent Responses, 72 h): 98 % I
pEC50 (NCI-H1792; [26]): 5.72
GI50 (NCI-H1792; [26]): 1440 nM
Response Area (NCI-H1792; [20]): 5.24
Max Response (% GI) (NCI-H1792; NCl-H1792, Lung, growth inhibition (GI), single agent, 72 h): 192 % GI

CN1CC[C@@H](c2c(O)cc(O)c3c(=O)cc(-c4ccc(C(F)(F)F)cc4Cl)oc23)[C@@H]1CO [Voruciclib, (+)-trans-2-(2-Chloro-4-trifluoromethylphenyl)-5,7-dihydroxy-8-(2-hydroxymethyl-1-methylpyrrolidin-3-yl)-chromen-4-one]
phosphoproteome change (MIA Paca-2 cells): rapid downregulation of phosphoproteins controlling transcription of MYC
